The numbers were not newly measured in US5189064A, “Treatment of cocaine addiction” (Matrix Technologies, Inc., priority 1990, dated 1993), which cites them from elsewhere.

Series [1] relates to [Met]-enkephalin. As to conditions: mice.
The test system of series [2] is [Met]-enkephalin.
A further series deals with enkephalinases. As to conditions: rat intestinal mucosa.
A further series has as its system enkephalinase A. As to conditions: in vitro, calf brain enzyme.
A further series has as its system enkephalinase B. Conditions: in vitro, calf brain enzyme.
The target in a further series is T1, carboxypeptidase A (Bos taurus, UniProt P00730).
T1 sequence (P00730 111-417 limits assumed): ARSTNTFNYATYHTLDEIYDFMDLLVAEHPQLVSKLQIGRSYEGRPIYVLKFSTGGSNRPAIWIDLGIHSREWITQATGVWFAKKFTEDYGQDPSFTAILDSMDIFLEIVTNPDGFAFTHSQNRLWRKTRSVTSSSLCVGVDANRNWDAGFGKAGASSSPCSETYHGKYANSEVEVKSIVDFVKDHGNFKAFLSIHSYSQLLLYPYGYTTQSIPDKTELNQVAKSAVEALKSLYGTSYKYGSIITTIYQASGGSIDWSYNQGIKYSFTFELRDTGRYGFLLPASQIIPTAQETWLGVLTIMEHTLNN

The conditions of series [3]: tryptophan injected into the bloodstream.
For series [4] the following is noted: infusion, neurological patients with depression and insomnia.
In another series the test system is healthy men. As to conditions: tryptophan 50 mg/kg, tyrosine 100 mg/kg, eight healthy men.

Read-outs that look alike come from different tables or passages of the source. Square brackets hold non-standard residues; d marks the D form. Ends that are not written are not given here.

On to `O=C(O)CCc1ccccc1` [hydrocinnamic acid], for which, in series [Met]-enkephalin [1], the “[Met]-enkephalin in the brain” value was “increases of [Met]-enkephalin”.
For the molecule `N[C@H](Cc1ccccc1)C(=O)O` [D-phenylalanine], the enkephalinase inhibited was 60% in the series on enkephalinase (cortex), 80% in the series with enkephalinase (hypothalamus), 84% with enkephalinase (spinal cord) and 78% in the series on enkephalinase (striatum). The endorphinase inhibited is listed as 18% in the series on endorphinase (cortex), 5% with endorphinase (hypothalamus), 40% in the series on endorphinase (spinal cord) and 10% with endorphinase (striatum). The “CNS [Met]-enkephalin level” value in [Met]-enkephalin [2] (six days later) is recorded as “remained high”. The “CNS increases of [Met]-enkephalin” value in [Met]-enkephalin [2] (within 90 minutes following DPA injection) is “tripled”. Moreover, in the series on enkephalinases, the “degradation of (D-Ala2-D-Leu5) enkephalin (DAPLE) and Tyr-D-Ala-Gly-Phe (TAAGP)” value is “significantly reduced degradation”. For the same molecule, the “inhibitory activity against enkephalinase A” value in the series on enkephalinase A is “much less effective”. In the series on enkephalinase B, the “inhibitory activity against enkephalinase B” value is “much less effective”. For the same molecule, the “inhibition of carboxypeptidase A” value on carboxypeptidase A is given as “inhibit carboxypeptidase A”.
As for [dF]-Tyr, the “inhibitory activity against enkephalinase A” value with enkephalinase A is reported as “markedly enhances the inhibitory potency”. For the same molecule, the “inhibitory activity against enkephalinase B” value with enkephalinase B is reported as “markedly enhances the inhibitory potency”.
On to `N[C@@H](Cc1c[nH]c2ccccc12)C(=O)O` [tryptophan, L-tryptophan], for which, in [3], the “level of serotonin in the brain elevated” value is “two” and the “level of tryptophan in the brain elevated” value is “nine”. Also, the “elevations in cortical tryptophan levels” value in series [4] is “six”. In addition, in the series on healthy men, the pain discriminability entry is “significantly reduced pain discriminibility”.
For `N[C@@H](Cc1ccc(O)cc1)C(=O)O` [tyrosine, L-tyrosine], the pain discriminability result in the series with healthy men is reported as “not”.
